Reference: patent US4440757A, “Pharmaceutical composition comprising derivative of aminobenzoic acid for regulating prostaglandin” (priority 1978, dated 1984)

Legend:
Sato's lung cancer = assay: Translocation of dye-staff to Sato's lung cancer; type: in vivo, donryu rat; conditions: 1000 mg/kg p.o. once; control 30.0
Procedure: On the back of a donryu rat, a lump of Sato's lung cancer of 5 mm in size was subcutaneously transplanted.
(§1) On the axillary part of an ICR mouse, 10^6 cells of sarcoma 180 were subcutaneously transplanted. While feeding the both animals, the present substance, Specimen No. 7, was forcibly administered orally once at a rate of 1000 mg/kg on 16th day of the transplantation and an aqueous 2% solution of Lissamine Green (a dye-staff manufactured by Imperial Chem. Ind. Co.) was injected into the caudal vein of the animal at a rate of 1 ml for a rat and 0.5 ml for a mouse.
(§2) After one hour of the injection, the animal was sacrificed to extirpate the proliferated tumour. The tumour of the rat was finely cut and homogenized with an aqueous 50% solution of ethanol. After diluting the homogenate with an addition of the solution to a total volume of 50 ml, the liquid was centrifugated for 15 min at 1000 rpm to separate the supernatant liquid. The content of the dye-staff was determined on the supernatant liquid itself or after dilution by spectrophotometry using its absorption maximum of 630 nm.

sarcoma 180 = assay: Translocation of dye-staff to sarcoma 180 (visual); type: in vivo, ICR mouse; conditions: 1000 mg/kg p.o. once
Procedure: as §1, §2

Ehrlich's cancer cell = assay: PGE in Ehrlich tumour and tumour weight (oral); type: in vivo, female C57BL/6 mouse; conditions: 1 g/kg/day oral
Procedure: Ehrlich's cancer cell were transplanted subcutaneously to groups of female C57BL/6 mouse after 8 weeks of her birth and while feeding the mice, the present substance, Specimen No. 7, was orally administered to each mouse every day at a rate of 1 g/kg/day. On 7th or 14th day of the transplantation, the mice were sacrificed with ether to extirpated the tumour. The tumour was treated by the same procedures as in Example 11 to determine the content of PGE therein. The concentration of PGE in the tumour was larger in the animal transplanted with the cells and administered with the present substance than in the control to which the same cells were transplanted but the present substance was not administered. Further it is observed that the content of PGE decreased in both groups as the time passed, and the rate of decrease was smaller in the group transplanted and administered than in the control group transplanted but not administered. These facts give the information that the present substance participates to the metabolism of PGE.

## O=C(O)c1ccc(NC2OC[C@@H](O)[C@H](O)[C@H]2O)cc1 (stereo partly drawn) [Specimen No. 7, Sodium p-aminobenzoate-N--D-xyloside]
Sato's lung cancer
  Amount of dye-staff: 51.0 μg/g tumour
Sarcoma 180
  sedimentation of the dye-staff in the central part of the tumour (visual): remarkable sedimentation of the dye-staff in the central part of the tumour
Ehrlich's cancer cell; 7th day, control 0.09
  Weight of tumour: 0.08 g
Ehrlich's cancer cell; 7th day, control 2.59
  Content of PGE in the tumour: 2.80 ng/g
Ehrlich's cancer cell; 14th day, control 0.84
  Weight of tumour: 0.67 g
Ehrlich's cancer cell; 14th day, control 1.16
  Content of PGE in the tumour: 1.65 ng/g
